Assay: method code SF, from Hansch, C. & Leo, A. (1987). Log P database [Dataset]. Pomona College Medicinal Chemistry Project.
Details: not given

| Structure (SMILES) | logP |
| --- | --- |
| O=[N+]([O-])c1ccc2[nH]c(CCCCCCc3nc4cc([N+](=O)[O-])ccc4[nH]3)nc2c1 | 1.51 |
| Cc1ccco1 | 1.85 |
| Nc1ccccc1O | 0.57 |
| CCCCOC(=O)c1cccc(C(=O)OCCCC)c1 | 4.26 |
| c1ccc2oncc2c1 | 1.63 |
| CC(=O)OC[C@@H](OC(C)=O)[C@@H](OC(C)=O)[C@H](OC(C)=O)[C@H](C=O)OC(C)=O | 0.63 |
| OC(C1CO1)C(O)C1CO1 (configuration not stated) | -1.29 |
| CCCCS | 2.28 |
| O=C(CNC(=O)c1ccccc1)Oc1cccc(C(F)(F)F)c1 | 3.3 |
| O=C(Cc1ccccc1)c1ccccc1 | 3.18 |
| CC(=O)Nc1ccc(Oc2ccccc2)cc1 | 3.13 |
| O=C(O)c1cccs1 | 1.57 |
| CNP(=O)(OC)Oc1ccc(C(C)(C)C)cc1Cl (configuration not stated) | 3.42 |
| O=C(O)COc1ccccc1O | 0.85 |
| CSSC | 1.77 |
| CCCCCCC1OC(=O)c2cc(N)ccc21 (configuration not stated) | 3.65 |
| OC(c1nc2cc(Cl)ccc2[nH]1)C(O)c1nc2cc(Cl)ccc2[nH]1 (configuration not stated) | 1.21 |
| Cc1c(C2(c3cc(C(C)C)c(O)c(Br)c3C)OS(=O)(=O)c3ccccc32)cc(C(C)C)c(O)c1Br | 2.78 |
| O=C1C(NCCO)=C(N2CC2)C(=O)C(NCCO)=C1N1CC1 | -1.48 |
| Cc1cccc([N+]([O-])=NC#N)c1 | 2.49 |
| CCOC(=O)C(=Cc1cccc(C)c1)C(=O)OCC | 3.55 |
| CC(=O)Nc1ccc(C(C)=O)cc1 | 1.24 |
| CCCOc1cn[nH]c1 | 1.42 |
| Cc1ccc(/C=C/[N+](=O)[O-])cc1 | 2.66 |
| O=C1CC(=O)c2ccccc21 | 0.61 |

| Structure (SMILES) | logP |
| --- | --- |
| COc1cc(S(C)=O)ccc1-c1cn2ccncc2n1 (configuration not stated) | 1.11 |
| CN(Cc1ccc([N+](=O)[O-])cc1)/N=N/c1ccc(C(=O)O)cc1 | 4.03 |
| COC(=O)c1cccc(NC(C)=O)c1 | 1.46 |
| CCCN(CCC)/N=C/c1c2c(O)c3c(O)c(C)c4c(c3c1O)C(=O)C(C)(O/C=C\C(OC)C(C)C(OC(C)=O)C(C)C(O)C(C)C(O)C(C)/C=C\C=C(C)C(=O)N2)O4 (configuration not stated) | 3.83 |
| S=C=Nc1ccccc1 | 3.25 |
| O=C(O)CCCc1c[nH]c2ccccc12 | 2.3 |
| CCC(O)CC | 1.21 |
| COc1ccc(-c2nc3cnccc3[nH]2)c(OC)c1 | 2.56 |
| NC(=O)Cc1ccsc1 | 0.31 |
| C#CCO | -0.38 |
| CCSCC1=Nc2cc(Cl)ccc2S(=O)(=O)N1 | 2.26 |
| COc1cc2c(c3c1c(=O)c1ccccc1n3C)C=CC(C)(C)O2 | 3.67 |
| CNc1nc2ccccc2o1 | 1.82 |
| O=C1CCCCO1 | -0.35 |
| CC(=O)N[C@@H]1CC(=O)N(c2ccccc2)C1=O | -0.33 |
| NC(=O)c1ccc(C(O)C(CO)NC(=O)C(Cl)Cl)cc1 (configuration not stated) | -0.48 |
| CC(=O)n1ccnc1 | -0.34 |
| CC(C)(C)c1ccccc1OCC(=O)O | 3.33 |
| CC(=S)Nc1ccccc1 | 1.71 |
| CC(C)Cl | 1.9 |
| O=S(=O)(c1ccccc1)C(F)(F)F | 2.69 |
| O=C(Nc1ccccc1)Nc1ccc(Cl)c(Cl)c1 | 4.7 |
| c1cnc2ccc3ncccc3c2c1 | 2.05 |
| O=C1OC(C2CCCCC2)c2ccccc21 (configuration not stated) | 3.34 |
| NC(=O)C(Cl)(Cl)Cl | 1.04 |

| Structure (SMILES) | logP |
| --- | --- |
| NC(=O)c1cccc(C(N)=O)c1 | -0.21 |
| CCC(=O)CCCN(C)c1ccc(S(=O)(=O)N(C)C)cc1 | 0.71 |
| NS(=O)(=O)NS(=O)(=O)Nc1ccccc1 | 0.02 |
| CNC(=O)O/N=C(\C)C(C)(C)[N+](=O)[O-] | 0.66 |
| C=CCO | 0.17 |
| CC=CC1=Nc2cc(Cl)ccc2S(=O)(=O)N1 | 1.96 |
| COc1cc(C=O)ccc1OCCOC(=O)c1ccccc1Cl | 3.21 |
| CN(C)c1ccc2c(c1)C(=O)OC2(C)C | 2.42 |
| CCC(C)NC(=O)C=C(Br)c1ccc(Cl)cc1 (configuration not stated) | 3.9 |
| O=S(=O)(NO)c1ccccc1 | 0.48 |
| O=NN(CCF)C(=O)NC1CCC(NC(=O)N(CCF)N=O)CC1 (configuration not stated) | 1.34 |
| NNC(=O)c1ccccc1 | 0.21 |
| CCCOc1cccc(C=C(C(=O)OCC)C(=O)OCC)c1 | 4 |
| CCCCOc1cccc(C=C(C(=O)OCC)C(=O)OCC)c1 | 4.03 |
| O=C(Nc1ccc(Br)cc1)C(F)(F)F | 3.34 |
| c1ccc(-n2cccn2)cc1 | 2.2 |
| CCOC(=O)C(=Cc1ccccc1OC)C(=O)OCC | 3.29 |
| O=S1(=O)NC(C2CC3C=CC2C3)=Nc2ccccc21 (configuration not stated) | 2.06 |
| CNc1ccccn1 | 1.07 |
| CC(C)c1ccccc1OC(=O)N(C)C | 2.65 |
| CCC1(CCC(C)C)C(=O)NC(=S)NC1=O | 2.98 |
| NC(=O)c1cccc(OC(=O)CNC(=O)c2ccccc2)c1 | 1.2 |
| O=NN1CCCCC1=O | -1.05 |
| Cc1ccccc1/C=N/O | 2.53 |
| Nc1ncc2ncn(COCCO)c2n1 | -0.96 |

| Structure (SMILES) | logP |
| --- | --- |
| O=S1(=O)NC(C2CCC2)=Nc2ccc(Cl)cc21 | 2.24 |
| Cc1cccc(C=C(C(N)=O)C(N)=O)c1 | 0.4 |
| OC/C=C/c1ccccc1 | 1.95 |
| CNC(=S)NC12CC3CC(CC(C3)C1)C2 | 2.67 |
| CC1=Nc2ccccc2S(=O)(=O)N1 | 0.29 |
| O=c1[nH]cc(Cl)c(=O)[nH]1 | -0.35 |
| CCC(C)c1ccccc1OCC(=O)O (configuration not stated) | 3.32 |
| Sc1ccccc1 | 2.52 |
| C/C=C/c1ccccc1 | 3.35 |
| CCOC(=O)C(=Cc1ccccc1OC)C(C)=O | 2.39 |
| CC(C)(C)C(=O)Nc1ccccc1 | 1.99 |
| O=CC(CO)OC(C=O)n1cnc2c(O)ncnc21 (configuration not stated) | -2.11 |
| c1ccc(OCCOc2ccccc2)cc1 | 3.81 |
| Cc1ccc2[nH]c(CCCCCCc3nc4cc(C)ccc4[nH]3)nc2c1 | 1.76 |
| O=[N+]([O-])c1ccc(CCO)cc1 | 1.12 |
| C[C@@H]1C[C@H]2[C@@H]3C[C@H](F)C4=CC(=O)C=C[C@]4(C)[C@@]3(F)[C@@H](O)C[C@]2(C)[C@@]1(O)C(=O)COC(=O)C(C)(C)C | 3.86 |
| O=C(c1ccncc1)c1ccc(O)cc1 | 1.37 |
| COc1ccccc1C=CC(=O)ON=Cc1ccc(OCCO)c(OC)c1 | 3.56 |
| Nc1cccc(OC(=O)CNC(=O)c2ccccc2)c1 | 1.3 |
| CCOC(=O)C(=Cc1ccc(Br)cc1)C(=O)OCC | 4.02 |
| Clc1ccc2[nH]c(CCCCCc3nc4cc(Cl)ccc4[nH]3)nc2c1 | 1.98 |
| COc1ccccc1OC | 1.79 |
| CCC1(c2ccccc2)CCC(=O)NC1=O (configuration not stated) | 1.9 |
| COc1cc(OC)cc(OC(=O)CNC(=O)c2ccccc2)c1 | 2.69 |
| O=C(O)C(Cl)(Cl)Cl | 1.33 |

| Structure (SMILES) | logP |
| --- | --- |
| CN(C)Cc1cccs1 | 1.67 |
| CCOC(=O)C(=Cc1cccc(OC)c1)C(C)=O | 2.34 |
| CN(C)CCCN1c2ccccc2Sc2ccc(S(C)(=O)=O)cc21 | 3.5 |
| COc1cc2c(c(OC)c1OC)-c1ccc(OC)c(=O)cc1[C@@H](N)CC2 | 0.67 |
| CC(=O)Nc1ccc2c(c1)S(=O)(=O)c1ccc(C)cc1C2=O | 2.76 |
| Cc1cccc2cccnc12 | 2.6 |
| Clc1ccc2[nH]c(CCCCCCc3nc4cc(Cl)ccc4[nH]3)nc2c1 | 1.38 |
| FC(F)(F)C(F)(F)C(F)(F)C(F)(F)C(F)(F)F | 4.4 |
| CC1(C)Cc2cccc(O)c2O1 | 2.08 |
| FC(F)Oc1ccccc1 | 2.41 |
| N#CN=[N+]([O-])c1ccc(F)cc1 | 1.8 |
| CC(C)(C)CC1=Nc2ccc(Cl)cc2S(=O)(=O)N1 | 2.71 |
| c1ccc(-c2cccs2)cc1 | 3.74 |
| CC(C)(C)c1ccccc1 | 4.11 |
| CS(=O)(=O)Oc1ccccc1 | 1.25 |
| CN(C=O)c1ccc(S(=O)(=O)N(C)C)cc1 | 0.4 |
| CCOC(=O)CON=Cc1ccc(OCC(=O)OCC)c(OC)c1 | 1.87 |
| CC1CCCN(N=O)C1=O (configuration not stated) | -0.66 |
| C=C1C[C@]23C[C@@]1(O)CC[C@H]2[C@@]12C=C[C@H](O)[C@@](C)(C(=O)O1)[C@H]2[C@@H]3C(=O)O | 0.24 |
| CCC1(C)CCC(=O)NC1=O (configuration not stated) | 0.23 |
| COC(=O)c1ccc[nH]1 | 1.17 |
| CC(=O)Oc1ccccc1I | 2.55 |
| COc1cc2c(c(OC)c1OC)-c1ccc(O)c(=O)cc1[C@@H](N)CC2 | 0.26 |
| Cc1ccc(C(N)=O)cc1 | 1.18 |

Same assay, conditions: pH 1.0

| Structure (SMILES) | logD |
| --- | --- |
| O=C(O)COc1ccccc1F | 1.39 |
| O=C(O)c1ccccc1Oc1ccccc1 | 3.11 |
| O=C(O)CNC(=O)c1ccccc1 | 0.31 |

Same assay, conditions: pH 2.0

| Structure (SMILES) | logD |
| --- | --- |
| O=C(O)c1ncccc1O | -1.27 |

Same assay, conditions: pH 3.0

| Structure (SMILES) | logD |
| --- | --- |
| CC(=O)OCC1=C(C(=O)O)N2C(=O)C(NC(=O)Cc3ccccc3)C2SC1 (configuration not stated) | 0.2 |

Same assay, conditions: pH 4.2

| Structure (SMILES) | logD |
| --- | --- |
| Nc1nc(=O)c2[nH]nnc2[nH]1 | -0.71 |

Same assay, conditions: pH 5.0

| Structure (SMILES) | logD |
| --- | --- |
| O=[N+]([O-])c1ccc2oncc2c1 | 1.46 |
| CC(C)c1ccc(O)c(=O)cc1 | 1.89 |

Same assay, conditions: pH 6.8

| Structure (SMILES) | logD |
| --- | --- |
| CC(=O)OCOC(=O)C1=C(CSC2(C)N=NN=N2)CSC2C(NC(=O)C(O)c3ccccc3)C(=O)N12 (configuration not stated) | 0.75 |

Same assay, conditions: pH 7.0

| Structure (SMILES) | logD |
| --- | --- |
| CO[C@H]1[C@@H](O)[C@@H](C)O[C@H](O[C@H]2[C@H](Oc3cccc4c(O)c5c(=O)oc6ccc(C)c7c(=O)oc(c34)c5c67)O[C@H](C)[C@H](O)[C@@H]2O)[C@@H]1O | 1.8 |

Same assay, conditions: pH 7.2

| Structure (SMILES) | logD |
| --- | --- |
| CO/N=C(/C(=O)N[C@@H]1C(=O)N2C(C(=O)OC(C)OC(C)=O)=C(COC(N)=O)CS[C@@H]12)c1ccco1 (some centres not stated) | 0.89 |

Same assay, conditions: pH 7.4

| Structure (SMILES) | logD |
| --- | --- |
| CSc1ccc2c(c1)C(c1ccccc1)=NCC(=O)N2 | 2.92 |
| Nc1nncs1 | -0.57 |
| C=CCN(CC=C)c1c(C)n(-c2ccccc2)c(=O)n(C)c1=O | 2.59 |
| CCN(CC)c1c(C)n(CC)c(=O)n(-c2ccccc2)c1=O | 2.2 |
| Cc1c(N(C)C)c(=O)n(C)c(=O)n1C | 0.99 |
| O=C1C=C(O)CCN1[C@@H]1O[C@H](CO)[C@@H](O)[C@H]1O | -2.28 |
| Cc1c(N2CCOCC2)c(=O)n(-c2ccccc2)c(=O)n1C | 0.69 |

Same assay, conditions: pH 11.0

| Structure (SMILES) | logD |
| --- | --- |
| CN(C)C=CCCc1cccnc1 | 1.68 |
| c1cncc([C@@H]2CCCN2)c1 | 0.17 |

Same assay, conditions: pH 12.0

| Structure (SMILES) | logD |
| --- | --- |
| CC1(C)N=C(N)N=C(N)N1c1cccc([N+](=O)[O-])c1 | 0.06 |

Same assay, conditions: pH 13.0

| Structure (SMILES) | logD |
| --- | --- |
| CC1(C)N=C(N)N=C(N)N1c1ccccc1 | 0.28 |
| COc1cc(Cc2cnc(N)nc2N)cc(OC)c1N(C)C | 1.51 |

— the SangsterLogP compilation
